Test results from publication PMC10080078, “Use of phage display biopanning as a tool to design CAR-T cells against glioma stem cells” (Frontiers in Oncology, 2023).
Where “and” joins values, the source holds several entries; their conditions need not be identical. Equal entries are not always repeated. Blank lines part the entries; values can stand above or below the molecule they belong to. Where no end group is shown, it is not given here.

Tests used:
GSCs = details: ref ([22], [23]), cited from earlier work; for targeting of GSCs in vitro: previously demonstrated
Protocol: We have previously isolated glioblastoma stem cell targeting peptides through a combination of in vitro and in vivo biopanning strategies ([22], [23]). In vitro biopanning was performed by screening a random 7 amino acid phage peptide library against differentiated stem cells and glioblastoma stem cells grown in culture to isolate GSC-specific targeting peptides ( Figure 1A ). Two types of in vivo biopanning were performed, one against mice with intracranial GBM xenografts ( Figure 1B ) and one with subcutaneous flank xenografts ( Figure 1C ). Two peptides were selected for use in subsequent e ... || Figure 1 Peptide selection. Schematic representation of phage display strategies used to isolate the GSC-targeting peptides E (AWEFYFP) and V (SSQPFWS). […] Authors’ elaboration based on prior data from ([22], [23]).

N-cadherin [1] = details: by itself; ref manuscript under review; cited from earlier work
Description: Our study has illustrated the utility and feasibility of designing novel antigen-binding domains for CAR-T cells by using two short peptides of just seven amino acids each to induce functional recognition of GSCs.

[2] = tested on: intracranial GBM xenografts; details: ref ([22], [23]); cited from earlier work
Description: (§1) Figure 1 Peptide selection. Schematic representation of phage display strategies used to isolate the GSC-targeting peptides E (AWEFYFP) and V (SSQPFWS). […] Authors’ elaboration based on prior data from ([22], [23]).

[3] = biological target: T1, N-cadherin extracellular domain, amino acids 160-724 (Homo sapiens, UniProt P19022); assay: Surface plasmon resonance, single cycle kinetics (Biacore T200); format: binding
T1 construct: Recombinant Human N-Cadherin extracellular domain, amino acids 160-724; purchased R&D Systems 1388NC050
T1 sequence (P19022 160-724): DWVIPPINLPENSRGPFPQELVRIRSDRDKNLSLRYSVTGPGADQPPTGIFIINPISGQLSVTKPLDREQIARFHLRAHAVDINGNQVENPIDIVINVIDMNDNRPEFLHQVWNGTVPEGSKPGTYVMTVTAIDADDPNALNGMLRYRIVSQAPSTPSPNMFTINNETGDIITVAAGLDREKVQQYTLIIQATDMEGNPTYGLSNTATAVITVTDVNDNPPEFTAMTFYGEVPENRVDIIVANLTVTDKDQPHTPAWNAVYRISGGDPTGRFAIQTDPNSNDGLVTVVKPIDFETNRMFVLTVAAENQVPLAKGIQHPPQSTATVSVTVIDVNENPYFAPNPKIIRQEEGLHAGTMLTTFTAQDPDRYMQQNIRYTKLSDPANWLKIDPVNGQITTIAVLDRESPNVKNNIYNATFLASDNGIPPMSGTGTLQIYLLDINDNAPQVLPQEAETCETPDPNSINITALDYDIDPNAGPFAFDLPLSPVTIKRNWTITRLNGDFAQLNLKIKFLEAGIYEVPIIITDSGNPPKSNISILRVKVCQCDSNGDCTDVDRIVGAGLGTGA
Protocol: The direct binding measurements between N-cadherin and EV peptide by surface plasmon resonance was performed by immobilizing N-cadherin protein (Recombinant Human N-Cadherin extracellular domain, amino acids 160-724, 1388NC050, R&D Systems, Minneapolis, MN) to a CM5 sensor chip surface docked in Biacore T200 (Cytiva, Marlborough, MA) at 25°C using an amine-coupling method. Prior to immobilization, the chip was primed and equilibrated with a running buffer containing 20 mM HEPES, pH 7.4, 1 mM TCEP, 2 mM CaCl2 and 150 mM NaCl at a flow rate of 10 µL/min. The carboxymethyl surface of the CM5 chip was manually activated for 7 minutes using a 1:1 ratio of 0.4 M 1-ethyl-3-(3-[…]) carbodiimide hydrochloride (EDC) and 0.1 M N-hydroxysuccinimide (NHS) to achieve a density of about 10,000 RU per flow cell. N-cadherin protein stock (1.12 µM) was diluted to 100 nM in 10 mM sodium acetate, pH 4.5, and manually injected over the surface at the same flow rate. […]
For kinetic titration experiments, the same running buffer was used except with the inclusion of 5% DMSO. […] Sensorgrams were solvent corrected, buffer referenced, and the on-rate, off-rate, and equilibrium binding constants were calculated from the sensorgrams by global fitting of a 1:1 binding model, using analysis software (version 3.0) provided with Biacore T200 instrument (Cytiva).

N-cadherin [4] = assay: Immunoblot of peptide pull-down; format: binding; details: biotinylated peptide 40 μg on streptavidin agarose
Protocol: Cells were lysed using the IP Lysis Buffer Protocol (Pierce, Waltham, MA) as described by the manufacturer. Biotinylated peptides (EV-b and NT-b, 40 μg) were incubated with 100 μL of streptavidin agarose resin at 4°C for 1 hour on a rotator to generate the peptide-coupled streptavidin agarose resin. The protein samples were pre-cleared by incubation of 50 μL of NT-streptavidin agarose resins (4°C on rotator for 1 hour). After centrifugation, the pre-cleared samples were incubated with 150 μL of EV-coupled streptavidin agarose resin at 4°C overnight on rotator. After PBS wash, the resin was pelleted and sent for mass spectrometry analysis (see details in Supplementary Methods ) or eluted with 4x Laemmli Sample Buffer (Bio-Rad, Hercules, CA) containing 1X DTT reducing agent (dithiothreitol, Cell Signaling Technology, Danvers, MA) and boiled for SDS-PAGE. Pulled-down proteins were then separated with a Novex™ WedgeWell™ (ThermoFisher Scientific, Waltham, MA) and transferred to polyvinylidene fluoride (PVDF) membranes (Millipore, Burlington, MA). Membrane-transferred proteins were immunoblotted with an antibody recognizing N-cadherin (1/10000, NBP2-01498, Novus Biologicals, Littleton, CO) ( Supplemental Figure 2 ).

[5] = tested on: subcutaneous flank GBM xenografts; details: ref ([22], [23]); cited from earlier work
Description: as §1

[6] = biological target: T2, Recombinant Human N-Cadherin extracellular domain, amino acids 160-724 (human, UniProt P19022 160-724); assay: SPR; N-cadherin amine-coupled to CM5 chip (about 3500 RU), Biacore T200, 25°C; 20 mM HEPES pH 7.4, 1 mM TCEP, 2 mM CaCl2, 150 mM NaCl, 5% DMSO; single cycle kinetics, peptide 2 to 167 µM; 1:1 binding model; details: both partners purified
T2 construct: N-cadherin (CDH2), human, extracellular domain, amino acids 160-724; also called recombinant N-cadherin; recombinant extracellular N-cadherin protein; source: bought: R&D Systems
T2 sequence (looked up): T1 sequence (P19022 160-724)

[7] = biological target: T2, Recombinant Human N-Cadherin …; assay: ELISA; plates coated with 2.5 μg/mL recombinant N-cadherin; biotinylated peptides at different concentrations in PBS-2%-BSA, 1 hour at RT; streptavidin-HRP; details: both partners purified

Molecule: AWEFYFP [isolated from both the in vitro and intracranial in vivo biopanning]
- targeting of GSCs in vitro (GSCs): specificity for targeting GSCs in vitro
- enrichment in in vitro biopanning (GSCs): one of the most enriched
- binding of single peptide E to N-cadherin (N-cadherin [1]): positive binding to N-cadherin
- enrichment in in vivo biopanning, intracranial [2]: one of the most enriched

Molecule: FAYPEWFGGGGSGGGGSGGGGSPSWSFSQ [NT, reference compound]
- N-cadherin antibody signal in peptide pull-down immunoblot (N-cadherin [4]): absent
- SPR response / KD of NT peptide ([3]; identical condition, NT peptide in SPR is GGGSGGG, could not be fitted for reliable extraction of the KD): did not exhibit significant resonance units

Molecule: SSQPFWS [V, isolated from the subcutaneous flank biopanning]
- targeting of GSCs in vitro (GSCs): specificity for targeting GSCs in vitro
- enrichment in in vivo biopanning on subcutaneous tumors [5]: one of the most enriched

The remaining lines, values ahead:

- kon ([3]; CM5 chip, 25°C, 20 mM HEPES pH 7.4, 1 mM TCEP, 2 mM CaCl2, 150 mM NaCl, 5% DMSO, EV 2 to 167 µM, 1:1 model, first run, read-out: on-rate (ka)): 2620 M⁻¹ s⁻¹
Molecule: AWEFYFPGGGGSGGGGSGGGGSSSQPFWS [EV]

- Kd [6]: 9.4 µM and 8.45 µM and 7.5 µM
- koff [6]: 0.0196 s⁻¹
B1: EV peptide as used in surface plasmon resonance (peptide)
peptide: AWEFYFPGGGGSGGGGSGGGGSSSQPFWS
notes: dual peptide EV; the SPR methods say only 'EV peptide'; source: synthetic peptide

- binding result [7]: binds
B2: biotinylated dual peptide EV (EV-b) (peptide)
peptide: AWEFYFPGGGGSGGGGSGGGGSSSQPFWS
modifications: also: biotin conjugated, position not given here
notes: 29 amino acids; also called EV-biotinylated peptide; source: synthetic peptide (LifeTein)
